Molecular target: PAS domain-containing serine/threonine-protein kinase (Homo sapiens, UniProt Q96RG2)
Assay: Inhibition of purified human PASK kinase domain expressed in insect cells incubated for 10 mins using MBP protein by kinase-Glo luminescent kinase assay

Sequence of PAS domain-containing serine/threonine-protein kinase (Q96RG2 whole entry, the tested form may be a part): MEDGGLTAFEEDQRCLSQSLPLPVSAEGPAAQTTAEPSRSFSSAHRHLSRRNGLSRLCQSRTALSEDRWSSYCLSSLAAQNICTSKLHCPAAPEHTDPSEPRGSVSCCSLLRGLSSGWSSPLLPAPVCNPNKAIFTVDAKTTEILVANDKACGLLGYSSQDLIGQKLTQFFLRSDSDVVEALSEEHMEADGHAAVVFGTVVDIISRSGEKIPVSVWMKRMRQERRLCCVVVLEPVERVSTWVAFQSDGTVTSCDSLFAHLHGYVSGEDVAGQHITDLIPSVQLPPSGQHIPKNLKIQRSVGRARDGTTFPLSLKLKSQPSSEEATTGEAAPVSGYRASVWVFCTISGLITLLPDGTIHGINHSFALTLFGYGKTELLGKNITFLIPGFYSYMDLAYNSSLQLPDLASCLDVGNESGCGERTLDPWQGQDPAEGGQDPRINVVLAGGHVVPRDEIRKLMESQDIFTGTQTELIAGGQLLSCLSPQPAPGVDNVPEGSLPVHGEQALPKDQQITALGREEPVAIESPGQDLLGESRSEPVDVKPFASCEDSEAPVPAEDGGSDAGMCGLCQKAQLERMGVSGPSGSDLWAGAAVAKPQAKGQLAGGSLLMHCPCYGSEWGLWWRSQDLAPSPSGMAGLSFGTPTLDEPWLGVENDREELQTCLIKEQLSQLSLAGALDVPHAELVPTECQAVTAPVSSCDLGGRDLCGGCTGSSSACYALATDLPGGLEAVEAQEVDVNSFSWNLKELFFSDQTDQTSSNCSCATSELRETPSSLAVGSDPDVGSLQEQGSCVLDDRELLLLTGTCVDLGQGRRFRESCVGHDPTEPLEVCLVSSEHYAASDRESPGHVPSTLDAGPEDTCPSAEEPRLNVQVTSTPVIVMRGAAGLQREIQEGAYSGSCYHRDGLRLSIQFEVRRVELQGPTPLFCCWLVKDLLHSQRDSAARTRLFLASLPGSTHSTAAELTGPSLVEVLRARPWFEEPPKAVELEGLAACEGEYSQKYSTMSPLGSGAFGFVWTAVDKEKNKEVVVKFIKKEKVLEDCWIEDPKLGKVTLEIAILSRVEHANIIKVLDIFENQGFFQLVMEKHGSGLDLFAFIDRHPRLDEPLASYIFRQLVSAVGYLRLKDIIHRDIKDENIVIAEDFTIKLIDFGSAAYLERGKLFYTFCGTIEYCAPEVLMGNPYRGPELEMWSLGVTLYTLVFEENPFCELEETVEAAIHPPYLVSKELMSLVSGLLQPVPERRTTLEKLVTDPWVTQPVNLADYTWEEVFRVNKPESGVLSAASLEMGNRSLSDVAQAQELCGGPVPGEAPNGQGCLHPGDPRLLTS

IC50: ≤ 10 µM
Structure (SMILES): O=c1cc(-c2ccc3c(c2)OCO3)[nH]c2c(-c3ccccn3)cnn12

Source: ChEMBL document CHEMBL4476863, “Heterocyclic compounds for the inhibition of pask” (2012)
